Results on four compounds are retold here after patent US8288541B2, “Piperazine amide derivatives” (Hoffmann-La Roche Inc., priority 2007, dated 2012).

The target in one data set is T1, LXR alpha (Homo sapiens, UniProt Q13133).
T1 construct: human LXR alpha (aa 164 to 447); unnamed tag ('tagged versions'); made in house; host or cells: E. coli BL21 (pLysS)
T1 sequence (Q13133 164-447): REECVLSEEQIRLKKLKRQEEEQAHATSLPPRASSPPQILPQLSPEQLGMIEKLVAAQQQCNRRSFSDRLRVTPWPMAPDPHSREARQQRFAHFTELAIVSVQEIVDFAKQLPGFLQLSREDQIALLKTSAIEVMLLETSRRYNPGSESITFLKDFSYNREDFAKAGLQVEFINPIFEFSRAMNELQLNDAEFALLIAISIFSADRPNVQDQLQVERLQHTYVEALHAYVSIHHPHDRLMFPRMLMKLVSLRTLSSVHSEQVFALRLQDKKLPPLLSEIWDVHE
The data set can be described thus: Radioligand binding assay (SPA), LXR alpha LBD. The conditions noted are these: LXRα-LBD, read-out: LXRalpha Binding IC50. On the procedure:
(§1) The following tests were carried out in order to determine the activity of the compounds of the present invention. Background information on the performed assays can be found in: Nichols J S et al. “Development of a scintillation proximity assay for peroxisome proliferator-activated receptor gamma ligand binding domain”, Anal Biochem. 1998, 257: 112-119.
(§2) Mammalian expression vectors were constructed to express full-length human LXR alpha and LXR beta. Bacterial expression vectors were constructed to produce tagged versions of the ligand binding domains (LBD) of human LXR alpha (aa 164 to 447) and human LXR beta (aa 155 to 460). To accomplish this, the portions of the sequences encoding the LBDs were amplified from the full-length clones by PCR and then subcloned into the plasmid vectors. Final clones were verified by DNA sequence analysis (Willy et al., Genes Dev. 1995, 9:1033-45; Song et al., Proc Natl Acad Sci USA. 1994, 91:10809-13).
(§3) Induction, expression, and purification of LBD proteins were performed in E. coli strain BL21 (pLysS) cells by standard methods (Ref: Current Protocols in Molecular Biology, Wiley Press, edited by Ausubel et al).
(§4) Radioligand Binding Assay
(§5) LXR alpha and LXR beta receptor binding were assayed in buffer consisting of 50 mM HEPES, pH 7.4, 10 mM NaCl, 5 mM MgCl2. For each 96-well reaction, 500 ng of LXRα-LBD or 700 ng of LXR beta-LBD proteins were bound to 80 μg or 40 μg SPA beads respectively, in a final volume of 50 μl by shaking. The resulting slurry was incubated for 1 h at RT and centrifuged for 2 min at 1300×g. The supernatant containing unbound protein was removed, and the semi-dry pellet containing the receptor-coated beads was re-suspended in 50 μl of buffer. […] All binding assays were performed in 96-well plates and the amount of bound ligand was measured on a Packard TopCount using OptiPlates (Packard). Dose response curves were measured within a range of concentration from 10^−10 M to 10^−4 M.

In another data set the target is T2, LXR beta (Homo sapiens, UniProt P55055).
T2 construct: human LXR beta (aa 155 to 460); unnamed tag ('tagged versions'); made in house; host or cells: E. coli BL21 (pLysS)
T2 sequence (P55055 155-460): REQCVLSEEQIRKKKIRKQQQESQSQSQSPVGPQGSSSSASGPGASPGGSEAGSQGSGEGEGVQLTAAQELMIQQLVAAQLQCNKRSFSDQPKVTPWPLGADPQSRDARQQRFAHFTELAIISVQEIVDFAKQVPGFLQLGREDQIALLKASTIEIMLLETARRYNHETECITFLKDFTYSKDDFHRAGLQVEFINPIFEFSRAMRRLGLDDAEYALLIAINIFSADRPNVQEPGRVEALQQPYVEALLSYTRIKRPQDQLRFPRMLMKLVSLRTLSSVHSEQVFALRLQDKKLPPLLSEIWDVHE
The data set can be described thus: Radioligand binding assay (SPA), LXR beta LBD. Conditions: read-out: LXRbeta Binding IC50. Here is the method: as §1, §2, §3, §4, §5

As a reminder, the melting point is the temperature of the solid-liquid transition. For orientation: IC50 means the concentration that gives 50% inhibition.

The structures appear in SMILES notation.

For `COc1cccc(S(=O)(=O)N2CC[C@H](c3ccccc3)[C@H](C(=O)N3CCN(c4cc(C)ccc4C)CC3)C2)c1` (relative stereo) [Example 42, Cis-[4-(2,5-Dimethyl-phenyl)-piperazin-1-yl]-[-1-(3-methoxy-benzenesulfonyl)-4-phenyl-piperidin-3-yl]-methanone], the melting point amounted to 192 °C.
Turning to `Cc1ccc(Cl)cc1N1CCN(C(=O)[C@@H]2CN(S(C)(=O)=O)CC[C@@H]2c2ccc(F)cc2F)CC1` (single isomer, unassigned) [Example 87, [4-(5-Chloro-2-methyl-phenyl)-piperazin-1-yl]-[(3S,4S) or (3R,4R)-4-(2,4-difluoro-phenyl)-1-methanesulfonyl-piperidin-3-yl]-methanone], the figures for the IC50 at LXR alpha and at LXR beta were 15.6 µM and 2.8 µM, respectively.
On to `Cc1cc(F)ccc1N1CCN(S(=O)(=O)c2cccc(Cl)c2)CC1C(=O)N1CCN(c2cc(Cl)ccc2Cl)CC1` (stereo not shown) [Example 4, [4-(3-Chloro-benzenesulfonyl)-1-(4-fluoro-2-methyl-phenyl)-piperazin-2-yl]-[4-(2,5-dichloro-phenyl)-piperazin-1-yl]-methanone], for which the figures for the IC50 on LXR alpha and on LXR beta were 18 µM and 0.72 µM, respectively.
For the compound `COc1cccc(S(=O)(=O)N2CCN(c3ccccc3)C(C(=O)N3CCN(c4cc(C)ccc4C)CC3)C2)c1` (stereo not shown) [Example 8, [4-(2,5-Dimethyl-phenyl)-piperazin-1-yl]-[4-(3-methoxy-benzenesulfonyl)-1-phenyl-piperazin-2-yl]-methanone], the figures for the IC50 at LXR alpha and on LXR beta were 4.1 µM and 0.77 µM, respectively.
